Laboratory results as given in patent publication US9963480B2, “Nucleoside phosphoramidate compound and use thereof” (priority 2013, dated 2018).

Columns and labels:
Type in all cases: cell-based
[1] = Cell viability detection (MTT) in the HCVcc system; conditions: human, Huh 7.5.1 cells infected with J399EM virus (HCVcc); Huh 7.5.1 cells, MTT, 72 hr
Protocol: (§1) Huh 7.5.1 cells, provided by Shanghai Institute of Materia Medica, Chinese Academy of Sciences.
(§2) • 1) Huh 7.5.1 cells preparation: collecting the Huh7.5.1 cells in logarithmic phase, resuspending in DMEM complete culture medium, seeding into 96-well plates (7×10^3 cells/well), and incubating in a 37° C., 5% CO2 incubator for 24 h; • 2) virus infection: resuspending J399EM viruses in DMEM complete culture medium, adding the virus supernatant (MOI≈0.1) to the above 96-well plates, and washing with PBS after 8 hours of infection; • 3) drug treatment: adding various concentrations of the compounds to the Huh7.5.1 cells infected by J399EM viruses, with each concentration in duplicate; setting the control group with zero percent effect (ZPE) and the control group with hundred percent effect (HPE); replacing the compound with the DMEM complete culture medium containing 0.5% DMSO in ZPE group, and using the cells not infected with viruses in HPE group. • 4) cells incubation: incubating the 96-well plates in a 37° C., 5% CO2 incubator for 72 hr; • 5) anti-HCV activity detection: reading the relative fluorescence units (RFU) of each well by EnVision® Multi label Plate readers after incubation, and calculating the anti-HCV activity of the compounds using the obtained data according to the following formula: Inhibition %=(RFUZPE−RFUCPD)/(RFUZPE−RFUHPE)×100 • wherein RFUZPE represents the relative fluorescence units of the control group with zero percent effect and RFUCPD represents the relative fluorescence units of the corresponding compound group, and RFUHPE represents the relative fluorescence units of the control group with hundred percent effect. • 6) Cell viability detection: adding MTT solution to each well, incubating in a 37° C., 5% CO2 incubator for 4 hr, followed by addition of MTT dissolving solution, reading optical density (OD) of each well at 570 nm by the Multi label Plate readers after 6 hr, calculating the cytotoxicity of the compounds using the obtained data according to the following formula: Viability %=ODCPD/ODZPE×100 • wherein ODZPE represents the optical density of the control group with zero percent effect, and ODCPD represents the optical density of the corresponding compound; • 7) Data processing: processing the Inhibition %, Viability % by GraphPad Prism Software respectively, and obtaining the half maximal effective concentration (EC50) values and half maximal cytotoxic concentration (CC50) values of the compounds against the HVCcc GT2a viruses.

[2] = tested on: Huh 7.5.1 cells; assay: Cell viability detection (MTT) in the HCVcc system; conditions: HCVcc system
Protocol: as §1, §2

[3] = tested on: HCV 1b replicon; assay: Antiviral activity assay in HCV replicon system (Huh7 1b cells, luciferase reporter); conditions: Hepatitis C virus, Huh-7; Huh7 1b cells with HCV 1b replicon, Bright-Glo luciferase, 72 h; read-out: EC50
Procedure, shortened: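 Huh7 cells with stable HCV 1b luciferase replicon, 8×10^3/well, treated 72 h at 37 °C with 10-point 3-fold dilutions from 10 μM (0.5% DMSO), duplicate. Luciferase (Bright-Glo) gives % inhibition and EC50; CellTiter-Fluor read for cytotoxicity.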

[4] = tested on: J399EM (HCV genotype 2a) virus; assay: Antiviral activity assay in the cell-culture-derived infectious HCV (HCVcc) system
Protocol: The compound according to the above example 1 was used in this experiment. The compound was formulated into a 10 mM mother liquid with DMSO, diluted to 500 nM by DMEM complete culture medium containing 0.5% of DMSO, followed by 4-fold dilution successively, and six concentrations were obtained. The positive control was diluted to 10 μM by DMEM complete culture medium containing 0.5% of DMSO, followed by 4-fold successively, and six concentrations were obtained.
as §1
J399EM (HCV genotype 2a) virus, i.e. a full length HCV mutant strain transfected with EGFP (enhanced green fluorescent protein) was used, which had the same infection capacity as the wild type JFH-1. The NS5A-EGFP fusion protein fluorescence was observed directly in infected cells by inserting EGFP coding sequence in the NS5A region. J399EM was provided by Shanghai Institute of Materia Medica, Chinese Academy of Sciences.
as §2

Q: Which CC50 at 72 h [1] does the source give for CC(C)OC(=O)[C@H](C)NP(=O)(OC[C@H]1O[C@@H](n2ccc(=O)[nH]c2=O)[C@](C)(F)[C@@H]1O)Oc1ccc(-c2ccccc2)cc1 (stereo partly drawn) [Example 1, (2S)-2-((([1,1′-biphenyl]-4-yloxy)(((2R,3R,4R,5R)-5-(2,4-dioxo-3,4-dihydropyrimidin-1(2H)-yl)-4-fluoro-3-hydroxy-4-methyltetrahydrofuran-2-yl)methoxy)phosphoryl)amino)propanoic Acid Isopropyl Ester] here?
A: > 10 µM

Q: And the “cell toxicity compared with the positive control” value [2]?
A: less

Q: And the EC50 [3]?
A: 0.056 µM

Q: And the “antiviral activity compared with the positive control” value ([4]; HCVcc system)?
A: excellent

Q: What about the EC50 ([4]; Hepatitis C virus, Huh-7.5.1, 72 h) of the same compound?
A: 0.039 µM
